Values quoted from earlier work in patent US8129131B2, “Pin1 as a marker for abnormal cell growth” (Beth Israel Deaconess Medical Center, priority 1999, dated 2012).

Test system: Pin1 or its WW domain
Conditions: pre-incubation with various peptide concentrations before mitotic extracts; concentration-dependent

Pin1 or its WW domain, sequence (Q13526 1-39 limits assumed): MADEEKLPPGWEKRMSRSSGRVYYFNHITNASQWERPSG

phosphoprotein-binding activity of Pin1 or its WW domain: significantly reduced
Substance: WFYpSPRLKK [Pintide]
